Assay results from patent US20050197364A1, “Amide compounds as ion channel ligands and uses thereof” (priority 2003, published 2005).

What was measured:
VR1 receptor [1] = test: High throughput calcium imaging assay (Fura2, Flex Station) of VR1 antagonists, pH 5.1 stimulus; assay type: cell-based; conditions: 1 uM compound; inhibition of calcium ion influx induced by capsaicin stimulation
Experimental: Therefore the functional activity of compounds at the VR1 receptor may be determined by measuring changes in intracellular calcium levels in 293 cells expressing capsaicin-insensitive VR1 receptor variants. A dual wavelength ratiometric dye, Fura2, was used as an indicator of relative levels of calcium ions in a 96 well format using a bench top scanning fluorometer with integrated fluidics and temperature control (Flex Station, Molecular Devices).
293 cells were grown on PDL coated 96-well black-walled plates, in the presence of a DMEM medium containing 5% Penstrep, 5% Glutamax, 200 ug/mL Hygromycin, 5 μg/mL Blasticide and 10% heat inactivated FBS. Prior to assay, the cells were loaded with 5 μg/mL Fura2 in normal saline solution at 37° C. for 40 minutes. Cells were then washed with normal saline to remove the dye.
The assay consists of two stages; a pre-treatment phase followed by a treatment phase.
50 μl of a compound solution was added to the cells (Pre-treatment). Immediately following, 50 μl of the test compound in a saline solution at pH 5.1 was added. Fura2 was excited at 340 and 380 nM to indicate relative calcium concentration. Changes in wavelength measurements were made throughout the course of the experiment in 4 second intervals over a period of 3 minutes. Responses were measured as peak fluorescence ratio after test compound addition minus baseline fluorescence ratio prior to pre-treatment and were calculated using SoftMaxPro softwareData were expressed as percentage inhibition calculated using Excel as follows: [formula]

VR1 receptor [2] = biological target: T1, VR1 receptor (Rattus norvegicus, UniProt O35433); test: Whole-cell patch clamp electrophysiology, capsaicin induced current in DRG neurons; assay type: cell-based
T1 construct: Dorsal root ganglion (DRG) neurons were recovered from either neonatal or adult rats; endogenous in cells; host or cells: primary rat dorsal root ganglion neurons
T1 sequence (O35433 whole entry): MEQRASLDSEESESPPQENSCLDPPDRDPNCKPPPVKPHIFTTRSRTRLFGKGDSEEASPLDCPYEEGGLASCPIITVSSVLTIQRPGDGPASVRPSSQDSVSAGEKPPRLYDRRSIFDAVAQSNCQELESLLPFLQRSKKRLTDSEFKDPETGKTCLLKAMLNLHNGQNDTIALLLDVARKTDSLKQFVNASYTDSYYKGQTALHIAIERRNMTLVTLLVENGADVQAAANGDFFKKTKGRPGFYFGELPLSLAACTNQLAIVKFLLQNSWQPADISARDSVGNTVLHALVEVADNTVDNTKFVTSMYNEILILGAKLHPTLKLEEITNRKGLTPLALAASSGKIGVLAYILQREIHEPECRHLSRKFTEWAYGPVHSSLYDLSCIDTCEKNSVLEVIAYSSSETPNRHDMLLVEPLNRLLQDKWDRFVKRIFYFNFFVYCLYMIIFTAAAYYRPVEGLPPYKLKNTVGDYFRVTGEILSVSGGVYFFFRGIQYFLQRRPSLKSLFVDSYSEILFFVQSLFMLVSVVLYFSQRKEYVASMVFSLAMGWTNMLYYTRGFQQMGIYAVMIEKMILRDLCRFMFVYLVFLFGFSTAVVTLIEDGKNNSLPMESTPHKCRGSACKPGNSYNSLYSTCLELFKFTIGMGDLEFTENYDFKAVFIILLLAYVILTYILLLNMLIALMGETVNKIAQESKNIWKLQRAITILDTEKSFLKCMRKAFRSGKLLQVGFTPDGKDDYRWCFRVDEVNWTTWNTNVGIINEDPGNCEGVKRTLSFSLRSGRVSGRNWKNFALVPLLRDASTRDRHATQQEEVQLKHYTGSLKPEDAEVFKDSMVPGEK
Experimental: Dorsal root ganglion (DRG) neurons were recovered from either neonatal or adult rats and plated onto poly-D-lysine coated glass coverslips. The plated neurons were transferred into a chamber to allow drug solutions to be added to the cells using a computer-controlled solenoid-valve based perfusion system. The cells were imaged using standard DIC optics. Cells were patched using finely-pulled glass electrodes. Voltage-clamp electrophysiology experiments were carried out using an Axon Instruments Multiclamp amplified controlled by pCLAMP8 software.
The cells were placed into a whole-cell voltage clamp and help at a voltage of −80 mV while monitoring the membrane current in gap-free recording mode. 500 nM capsaicin was added for 30 seconds as a control. Test compounds at various concentrations at ranging from (10-1000 nM) were added to the cells for 1 minute prior to a 30 second capsaicin application. Differences between control experiments and drug positive capsaicin experiments were used to determine the efficacy of each test compound. All compounds that inhibited capsaicin induced current greater than 50% were considered positives.

Compound | % Inhibition @ 1 uM (VR1 receptor [1]) | dose response of inhibiting a capsaicin induced calcium ion influx (FIG. 4) (VR1 receptor [2]; 20 nM, 40 nM, 100 nM and 200 nM) | inhibition at 0.2 µM (VR1 receptor [2]; DRG neuron, 200 nM compound, treatment time 25 seconds, 500 nM capsaicin, rat DRG neurons, -80 mV) [%]
CC(C)(C)c1ccc(NC(=O)c2ccc(-c3ncccc3Cl)cc2)cc1 [Compound 24] | + + + + (compound exhibited 75% or greater inhibition of calcium ion influx induced by capsaicin stimulation) | increasing effectiveness | 100
O=C(Nc1ccccc1Cl)c1ccc(-c2ncccc2Cl)cn1 [Compound 297] | + + + + (“+ + + +” compound exhibited 75% or greater inhibition of calcium ion influx induced by capsaicin stimulation.) |  | 
N#Cc1cccc(NC(=O)c2ccc(-c3ncccc3Cl)cn2)c1 [Compound 299] | + + + + (“+ + + +” compound exhibited 75% or greater inhibition of calcium ion influx induced by capsaicin stimulation.) |  | 
CCCCc1ccc(NC(=O)c2ccc(-c3ncccc3Cl)cn2)cc1 [Compound 302] | + + + (“+ + +” compound exhibited 50-75% inhibition of calcium ion influx induced by capsaicin stimulation.) |  | 
O=C(Nc1ccc(C2CCCCC2)cc1)c1ccc(-c2ncccc2Cl)cn1 [Compound 303] | + + + + (“+ + + +” compound exhibited 75% or greater inhibition of calcium ion influx induced by capsaicin stimulation.) |  | 
O=C(Nc1ccc(C(F)(F)F)cc1)c1ccc(-c2ncccc2Cl)cn1 [Compound 308] | + (“+” compound exhibited 0-25% inhibition of calcium ion influx induced by capsaicin stimulation.) |  | 
COc1cc(NC(=O)c2ccc(-c3ncccc3Cl)cn2)cc(C(F)(F)F)c1 [Compound 311] | + (“+” compound exhibited 0-25% inhibition of calcium ion influx induced by capsaicin stimulation.) |  | 
Cc1cc(C)nc(NC(=O)c2ccc(-c3ncccc3Cl)cn2)c1 [Compound 312] | + (“+” compound exhibited 0-25% inhibition of calcium ion influx induced by capsaicin stimulation.) |  | 
O=C(Nc1ccncc1)c1ccc(-c2ncccc2Cl)cn1 [Compound 313] | + + + (“+ + +” compound exhibited 50-75% inhibition of calcium ion influx induced by capsaicin stimulation.) |  | 
O=C(Nc1ccc(N2CCNCC2)cc1)c1ccc(-c2ncccc2Cl)cn1 [Compound 317] | + (“+” compound exhibited 0-25% inhibition of calcium ion influx induced by capsaicin stimulation.) |  | 
Cc1ccnc(NC(=O)c2ccc(-c3ncccc3Cl)cn2)c1 [Compound 318] | + (“+” compound exhibited 0-25% inhibition of calcium ion influx induced by capsaicin stimulation.) |  | 
O=C(Nc1ccncn1)c1ccc(-c2ncccc2Cl)cn1 [Compound 319] | + + + + (“+ + + +” compound exhibited 75% or greater inhibition of calcium ion influx induced by capsaicin stimulation.) |  | 
COc1ccc(NC(=O)c2ccc(-c3ncccc3Cl)cn2)cn1 [Compound 324] | + + (“+ +” compound exhibited 25-50% inhibition of calcium ion influx induced by capsaicin stimulation.) |  | 
O=C(Nc1ccnc(Cl)c1)c1ccc(-c2ncccc2Cl)cn1 [Compound 325] | + (“+” compound exhibited 0-25% inhibition of calcium ion influx induced by capsaicin stimulation.) |  | 
Cc1cc(NC(=O)c2ccc(-c3ncccc3Cl)cn2)nc(C)n1 [Compound 326] | + (“+” compound exhibited 0-25% inhibition of calcium ion influx induced by capsaicin stimulation.) |  | 
O=C(Nc1ccc2ncccc2c1)c1ccc(-c2ncccc2Cl)cn1 [Compound 327] | + (“+” compound exhibited 0-25% inhibition of calcium ion influx induced by capsaicin stimulation.) |  | 
CCn1c2ccccc2c2cc(NC(=O)c3ccc(-c4ncccc4Cl)cn3)ccc21 [Compound 328] | + + + + (“+ + + +” compound exhibited 75% or greater inhibition of calcium ion influx induced by capsaicin stimulation.) |  | 
O=C(Nc1ccc2ccccc2c1)c1ccc(-c2ncccc2Cl)cn1 [Compound 331] | + + (“+ +” compound exhibited 25-50% inhibition of calcium ion influx induced by capsaicin stimulation.) |  | 
O=C(Nc1ccc(OCc2ccccc2)cc1)c1ccc(-c2ncccc2Cl)cn1 [Compound 332] | + (“+” compound exhibited 0-25% inhibition of calcium ion influx induced by capsaicin stimulation.) |  | 
CCOC(=O)c1ccc(NC(=O)c2ccc(-c3ncccc3Cl)cn2)cc1 [Compound 333] | + (“+” compound exhibited 0-25% inhibition of calcium ion influx induced by capsaicin stimulation.) |  | 
COc1ccc(NC(=O)c2ccc(-c3ncccc3Cl)cn2)cc1O [Compound 338] | + + (“+ +” compound exhibited 25-50% inhibition of calcium ion influx induced by capsaicin stimulation.) |  | 
COc1cc(NC(=O)c2ccc(-c3ncccc3Cl)cn2)cc(OC)c1OC [Compound 339] | + (“+” compound exhibited 0-25% inhibition of calcium ion influx induced by capsaicin stimulation.) |  | 
O=C(Nc1ccc2cc[nH]c2c1)c1ccc(-c2ncccc2Cl)cn1 [Compound 340] | + + + + (“+ + + +” compound exhibited 75% or greater inhibition of calcium ion influx induced by capsaicin stimulation.) |  | 
CCCOc1ccc(NC(=O)c2ccc(-c3ncccc3Cl)cn2)cc1 [Compound 341] | + (“+” compound exhibited 0-25% inhibition of calcium ion influx induced by capsaicin stimulation.) |  | 
O=C(Nc1ccc(OC(F)(F)F)cc1)c1ccc(-c2ncccc2Cl)cn1 [Compound 343] | + (“+” compound exhibited 0-25% inhibition of calcium ion influx induced by capsaicin stimulation.) |  | 
O=C(Nc1cccc(OC(F)(F)F)c1)c1ccc(-c2ncccc2Cl)cn1 [Compound 344] | + + (“+ +” compound exhibited 25-50% inhibition of calcium ion influx induced by capsaicin stimulation.) |  | 
CC(C)Oc1cccc(NC(=O)c2ccc(-c3ncccc3Cl)cn2)c1 [Compound 345] | + (“+” compound exhibited 0-25% inhibition of calcium ion influx induced by capsaicin stimulation.) |  | 
O=C(Nc1ccc(F)c(F)c1)c1ccc(-c2ncccc2Cl)cn1 [Compound 346] | + + + + (“+ + + +” compound exhibited 75% or greater inhibition of calcium ion influx induced by capsaicin stimulation.) |  | 
CCOc1cccc(NC(=O)c2ccc(-c3ncccc3Cl)cn2)c1 [Compound 347] | + + + + (“+ + + +” compound exhibited 75% or greater inhibition of calcium ion influx induced by capsaicin stimulation.) |  | 
